# Results: PubChem BioAssay (NCI)
#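 Five concentrations, 48 hours, 96-well plates. The concentration for 50% growth inhibition is given as GI50. TGI: total growth inhibition.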
# Tests used:
# Experiment in all cases: NCI anticancer screen, dose series, 48 h
# [1] = system: DMS 273 small cell lung
# [2] = system: RXF-631 renal
# [3] = system: HOP-18 NSCLC
# [4] = system: DLD-1 colon
# [5] = system: XF 498 CNS
# [6] = system: SNB-78 CNS
# [7] = system: SN12K1 renal
# [8] = system: M19-MEL melanoma
# [9] = system: LXFL 529 NSCLC
# [10] = system: MDA-N
SMILES,TGI [1] [µM],TGI [3] [µM],TGI [4] [µM],TGI [5] [µM],TGI [6] [µM],TGI [8] [µM],TGI [9] [µM],TGI [10] [µM],further results
C/C(=N\NC(=S)N1CC2CCC(CC2)C1)c1nccs1,4.93,7.95,17.3,13.8,41.8,1.8,15.8,–,TGI [2]: 17.6 µM; TGI [7]: 15.2 µM
O=C(Nc1ccc([As](=O)(O)O)cc1)Nc1cccc(Cl)c1Cl,–,–,–,–,–,–,–,> 100,–
C=C(C)C(O)CCC1(C)C=Cc2c(c(C)cc3c2[nH]c2ccccc23)O1 (stereo not given),–,–,18.8,25,25,25,25,17.3,–
CCOC(=O)C12CCCC1(O)N(NC(=O)OC(C)(C)C)C(C)=C2C(=O)OC (stereo not given),> 100,> 100,> 100,> 100,> 100,> 100,> 100,–,TGI [2]: > 100 µM
CCc1ccccc1NC(=O)C1=C(C)NC(C)=C(C(=O)Nc2ccccc2CC)C1c1ccccc1Cl,–,–,> 100,> 100,> 100,> 100,> 100,–,–
O=C(O)CCCSC(=O)Nc1ccc(N=Nc2ccccc2)cc1,> 100,–,–,–,> 100,–,> 100,–,–
CCOC(=O)c1nn2c(nc1=O)sc1ccc3ccccc3c12,> 100,> 100,> 100,–,> 100,> 100,> 100,–,–
CN(/N=C/c1cccc2cccnc12)c1ccc([N+](=O)[O-])cc1[N+](=O)[O-],> 55.7,> 100,> 100,19.2,61.6,> 100,> 100,> 100,TGI [2]: > 100 µM
COC1=C(N)C(=O)c2nc(C)ccc2C1=O,3.84,3.53,5.31,2.84,14.1,0.715,6.21,–,–
O.O.[NH-]C1(C(=O)O)CCCC1.[NH-]C1(C(=O)O)CCCC1.[Ni+2],–,–,–,–,–,–,–,> 100,GI50 [10]: > 100 µM
N.N.N.N.[Co+3].[N-]=[N+]=[N-].[N-]=[N+]=[N-].[N-]=[N+]=[N-],> 100,–,> 100,–,> 100,–,> 100,–,GI50 [1]: > 100 µM; GI50 [4]: > 100 µM; GI50 [6]: > 100 µM; GI50 [9]: > 100 µM
C[C@]12CC[C@@H]3c4ccc(OC(=O)N(CCCl)CCCl)cc4CC[C@H]3[C@@H]1CC[C@@H]2O,24.2,14,1.05,–,17.3,0.254,–,–,TGI [7]: 0.276 µM
COc1ccc(-c2cc3c(c4cc(OC)ccc24)C(=O)OC3=O)cc1,–,–,–,–,–,–,–,> 100,–
O=C1CC(O)CC(=O)C1=C(O)CCCCCCCCCCc1ccccc1 (stereo not given),> 100,> 100,> 100,> 100,> 100,> 100,> 100,–,TGI [2]: > 100 µM
N.N.N.N.N.NC(=O)c1nn[n-]n1.[Cl-].[Co+3],> 100,> 100,> 100,–,> 100,–,> 100,–,GI50 [1]: > 100 µM; GI50 [3]: > 100 µM; GI50 [4]: > 100 µM; GI50 [6]: > 100 µM; GI50 [9]: > 100 µM
COC(=O)CC1C[C@H](C#N)N(C(=O)c2ccccc2)C[C@@H]1CC[N+](=O)[O-] (stereo not given in full),> 100,> 100,> 100,> 100,> 100,> 100,> 100,–,–
CN(O)C(=O)SCC(NC(=O)CCC(N)C(=O)O)C(=O)NCC(=O)O (stereo not given),> 2000,> 2000,> 2000,–,> 2,> 2000,> 2000,–,GI50 [1]: > 2000 µM; GI50 [3]: > 2000 µM; GI50 [4]: > 2000 µM; GI50 [8]: > 2000 µM; GI50 [9]: > 2000 µM
O=C(NCCCCNc1cccccc1=O)OCc1ccccc1,> 100,> 100,> 100,–,> 100,> 100,> 100,–,TGI [2]: > 100 µM
COc1cc(C(O)CCBr)c(OC)cc1C (stereo not given),–,–,–,–,–,–,–,> 20.9,–
CCN(CC)c1c(C(=O)/C=C/c2ccc(Cl)cc2)c(-c2ccccc2)nn(C)c1=O,3.41,4.83,3.99,–,5.93,3.14,3.42,–,TGI [2]: 3.99 µM

SMILES,TGI [1] [µM],TGI [3] [µM],TGI [4] [µM],TGI [5] [µM],TGI [6] [µM],TGI [8] [µM],TGI [9] [µM],TGI [10] [µM],further results
C=C1C(=O)O[C@@H]2C[C@@H](C)[C@@H]3C=CC(=O)[C@@]3(C)[C@@H](O)[C@H]12,4.48,3.53,1.49,–,–,20.6,1.68,5.66,–
N#CC1(C#N)C2(c3ccccc3)OC(c3ccccc3)(c3cc4ccccc4cc32)C1(C#N)C#N,32,17.8,22.3,–,–,–,3.14,34.4,–
CC(C)Cn1cnc2c(SCc3ccc(Cl)cc3Cl)nc(N)nc21,–,–,–,–,–,–,–,> 100,–
O=C(COc1ccc(Cl)cc1)N1N=C(c2ccc(Cl)cc2)CC1(O)c1ccccc1 (stereo not given),33.1,> 100,49.5,> 100,> 56.7,> 63.4,> 100,–,–
O=C(O)CN(CC(=O)O)Cc1cc(C#Cc2ccc(C#Cc3ccccc3)cc2)cc(CN(CC(=O)O)CC(=O)O)n1,23.5,> 100,> 68.1,> 100,> 100,39.9,> 76.4,> 100,–
CC1=C(C(=O)Nc2cc(=O)n(C)c(=O)n2C)C(c2ccco2)C(C(=O)Nc2cc(=O)n(C)c(=O)n2C)=C(C)N1,–,–,> 100,> 100,> 100,> 100,> 100,–,TGI [2]: > 100 µM
CSC(=Nc1nnc(-c2ccc([N+](=O)[O-])cc2)s1)SC,> 100,> 71.6,> 100,43.3,60.9,> 100,> 100,> 100,–
Cc1c[n+](=O)c2ccccc2n1[O-],–,–,–,–,–,–,–,> 100,–
COC(=O)C1CC23CCCN4CCC5(c6ccccc6N(C=O)C15CC2)C43 (stereo not given),–,–,–,–,–,–,–,> 100,–
O=[N+]([O-])c1ccc(C[P+](c2ccccc2)(c2ccccc2)c2ccccc2)cc1,> 100,> 100,> 100,–,–,81.2,> 100,–,–
CCCCCCCCCCCc1nnc(N)o1,> 100,–,> 100,> 100,> 100,> 100,> 100,–,TGI [2]: > 100 µM
O=C(O)C1=C(O)C(C(=O)O)C23CCCCCCCCCCC12C(C(=O)O)C(O)=C3C(=O)O (stereo not given),> 100,> 100,> 100,> 100,–,> 100,> 100,–,–
COc1ccc(C23C(=O)c4ccccc4N2O[C@H]2C(=O)N(c4ccccc4)C(=O)[C@H]23)cc1 (stereo not given in full),> 100,> 100,> 100,> 100,> 100,> 100,> 100,–,TGI [2]: > 100 µM
Cc1cc(CC(=O)NCCO)n(CCO)c(=O)c1,> 100,> 100,> 100,> 100,> 100,> 100,> 100,–,TGI [2]: > 100 µM
CCOc1cccc(/C=N/N=C2\C(=O)Nc3c(Cl)cc(Cl)cc32)c1O,–,–,–,–,–,–,–,> 100,–
C=C(C)[C@@H]1CC[C@]2(C)CC[C@]3(C)[C@H](CC[C@@H]4[C@@]5(C)CC[C@H](O)C(C)(C)[C@@H]5CC[C@]43C)[C@@H]12,> 100,–,> 100,> 100,–,> 100,> 100,> 100,–
O=C1N(C2CCCCC2)CC12CCCCC2,> 100,> 100,–,> 100,> 100,> 100,–,–,TGI [2]: > 100 µM
O=C(O)CCC(=O)N1c2ccccc2CC1c1c[nH]c2ccccc12 (stereo not given),> 100,> 100,–,> 100,> 100,> 100,> 100,–,–
Cc1nnn[n-]1.N.N.N.N.N.[Cl-].[Co+3],> 100,> 100,> 100,–,–,–,> 100,–,GI50 [1]: > 100 µM; GI50 [3]: > 100 µM; GI50 [4]: > 100 µM; GI50 [9]: > 100 µM
COC(=O)NC(=O)c1cn(C2OC(CO)C(O)C2O)c(=O)[nH]c1=O (stereo not given),–,–,> 100,–,> 100,> 100,> 100,–,–
